According to patent US20200131669A1, “CYCLIC PEPTIDE COMPOUND HAVING HIGH MEMBRANE PERMEABILITY, AND LIBRARY CONTAINING SAME” (Chugai Seiyaku Kabushiki Kaisha, priority 2017, published 2020):
Starred links: 1 amine or outer side, 2 acyl side, 3 side chain; linkers in the order of their positions; H or OH if unused. Positions of bridges follow the written chain, without caps; N, C: chain ends. Non-standard residues stand in square brackets, D forms with d. Residues, ends and D or L forms follow the SMILES beside them. ξ: configuration not given here. *: point of attachment. NMeAbu(3,3-F2-piperidino) = CN[C@@H](CCN1CCCC(F)(F)C1)C(=O)O; Glu(NHSO2Me) = CS(=O)(=O)NC(=O)CC[C@H](N)C(=O)O; NMePhe(3-Cl) = CN[C@@H](Cc1cccc(Cl)c1)C(=O)O; X14 = O=C([C@H](CCc1ccccc1Cl)N[*:1])[*:2]; NMehPhe = CN[C@@H](CCc1ccccc1)C(=O)O; dNMehPhe = CN[C@H](CCc1ccccc1)C(=O)O; Gly(NCH2CH2Ph) = O=C(O)CNCCc1ccccc1; X9 = O=C(CN(CCOc1ccccc1)[*:1])[*:2]; hhPhe = N[C@@H](CCCc1ccccc1)C(=O)O; X3 = O=C([C@H](CCCCO)N[*:1])[*:2]; NMeF = CN[C@@H](Cc1ccccc1)C(=O)O; NMeGABA = CN(CCCC(=O)[*:2])[*:1]; NMeI = CC[C@H](C)[C@H](NC)C(=O)O; hPhe = N[C@@H](CCc1ccccc1)C(=O)O; Butyl(3-Me,3-OH) = CC(C)(O)CC*; NMeD = CN[C@@H](CC(=O)O)C(=O)O; CH2CONHtBu = CC(C)(C)NC(=O)C*; NMeL = CN[C@@H](CC(C)C)C(=O)O; NMeV = CN[C@H](C(=O)O)C(C)C; NMeAbu = CC[C@H](NC)C(=O)O; NMeA = CN[C@@H](C)C(=O)O; Piperidide = C1CCN(*)CC1; Abu = CC[C@H](N)C(=O)O; NBuGly = CCCCNCC(=O)O; NPrGly = CCCNCC(=O)O; Bn = c1ccc(C*)cc1; ξS = NC(CO)C(=O)O; Sar = CNCC(=O)O; tBu = CC(C)(C)*

assay: Caco-2 membrane permeability, improved method as used in the following Examples (96-well, 20 to 24 h preincubation); assay type: in vitro ADME; settings: human, Caco-2, Caco-2
Summary of the method: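 Caco-2 monolayers were grown three weeks and preincubated 20–24 h at 37 °C with compound in DMEM+FaSSIF (1% DMSO) apically. The assay then used compound in FaSSIF/HBSS (1% DMSO, pH 6.0) apically and HBSS with 4% BSA (pH 7.4) basally. Basal samples were taken at 180 min for LC/MS, and Papp (cm/sec) was calculated.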

Row | SMILES | Papp A→B at 180 min [×10⁻⁶ cm/s]
1 | CC(C)C[C@H]1C(=O)N(C)[C@@H](Cc2ccccc2)C(=O)N[C@H](C(=O)N2CCCCC2)CC(=O)N(C)[C@@H](C(C)C)C(=O)N[C@@H](C)C(=O)N(C)[C@@H](Cc2ccccc2)C(=O)N(C)[C@@H](CC(C)C)C(=O)N(C)CC(=O)N[C@@H]([C@@H](C)O)C(=O)N(C)[C@@H](C(C)C)C(=O)N[C@@H](CCc2ccccc2)C(=O)N1C [pd311] ([NMeV]A[NMeF][NMeL][Sar]T[NMeV][hPhe][NMeL][NMeF]D-Piperidide; lactam N-11) | 2.6
2 | CC[C@H](C)[C@H]1C(=O)N[C@H](C(=O)N2CCCCC2)CC(=O)N(C)CC(=O)N(C)[C@@H](Cc2ccccc2)C(=O)N[C@@H](CCCc2ccccc2)C(=O)N(C)[C@@H](CC(C)C)C(=O)N[C@@H]([C@@H](C)O)C(=O)N(C)CC(=O)N(C)[C@@H](Cc2ccccc2)C(=O)N(C)[C@@H](CC(C)C)C(=O)N[C@@H](COC(C)(C)C)C(=O)N1C [pd366] ([Sar][NMeF][hhPhe][NMeL]T[Sar][NMeF][NMeL]S(tBu)[NMeI]D-Piperidide; lactam N-11) | 1.8
3 | CC[C@@H]1NC(=O)[C@@H](CCc2ccccc2)N(C)C(=O)[C@H](CC(C)C)N(C)C(=O)[C@H](CC(C)C)NC(=O)[C@H](C)N(C)C(=O)C[C@@H](C(=O)N2CCCCC2)NC(=O)[C@H](CC(C)C)N(C)C(=O)CN(C)C(=O)[C@H]([C@@H](C)O)NC(=O)[C@H](CC(C)C)N(C)C(=O)[C@H](Cc2ccccc2)N(C)C1=O [pd322] ([NMeA]L[NMeL][dNMehPhe][Abu][NMeF][NMeL]T[Sar][NMeL]D-Piperidide; lactam N-11) | 3.1
4 | CC[C@H]1C(=O)N[C@@H]([C@@H](C)O)C(=O)N(C)CC(=O)N(C)[C@@H](Cc2ccccc2)C(=O)N(C)[C@@H](CC)C(=O)N[C@@H](COC(C)(C)C)C(=O)N(C)[C@@H](CC(C)C)C(=O)N[C@H](C(=O)N2CCCCC2)CC(=O)N(CCOc2ccccc2)CC(=O)N(C)[C@@H](CC(C)C)C(=O)N[C@@H](CC(C)C)C(=O)N1C [pd421] ([X9][NMeL]L[NMeAbu]T[Sar][NMeF][NMeAbu]S(tBu)[NMeL]D-Piperidide; lactam N-11) | 1.3
5 | CCCCN1CC(=O)N(C)[C@@H](Cc2cccc(Cl)c2)C(=O)N[C@@H](CCC(=O)NS(C)(=O)=O)C(=O)N(C)[C@@H](CC(C)C)C(=O)N[C@@H]([C@@H](C)O)C(=O)N(CCCC)CC(=O)N(C)[C@@H](Cc2ccccc2)C(=O)N(C)[C@@H](CC(C)C)C(=O)N[C@@H](CC(C)C)C(=O)N(C)[C@@H](CC(C)C)C(=O)N[C@H](C(=O)N2CCCCC2)CC1=O [pd66] ([NBuGly][NMePhe(3-Cl)][Glu(NHSO2Me)][NMeL]T[NBuGly][NMeF][NMeL]L[NMeL]D-Piperidide; lactam N-11) | 0.09
6 | CC(C)C[C@@H]1NC(=O)[C@H](Cc2ccccc2)N(C)C(=O)[C@@H](C(C)C)NC(=O)C[C@@H](C(=O)N2CCCCC2)NC(=O)[C@H](C(C)C)N(C)C(=O)[C@H](Cc2ccccc2)N(C)C(=O)[C@H](COC(C)(C)C)NC(=O)[C@H](CCN2CCCC(F)(F)C2)N(C)C(=O)CN(C)C(=O)[C@H]([C@@H](C)O)NC(=O)[C@H](CC(C)C)N(C)C1=O [pd387] ([dV][NMeF]L[NMeL]T[Sar][NMeAbu(3,3-F2-piperidino)]S(tBu)[NMeF][NMeV]D-Piperidide; lactam N-11) | 3.5
7 | CC[C@H](C)[C@@H]1NC(=O)[C@H](CC(C)C)N(C)C(=O)[C@@H](CC(C)C)NC(=O)C[C@@H](C(=O)N2CCCCC2)NC(=O)[C@H](CC(C)C)N(C)C(=O)[C@H](Cc2ccccc2)N(C)C(=O)[C@H](COC(C)(C)C)NC(=O)CN(CCc2ccccc2)C(=O)CN(C)C(=O)[C@H]([C@@H](C)O)NC(=O)[C@H](CC)N(C)C1=O [pd413] ([dL][NMeL]I[NMeAbu]T[Sar][Gly(NCH2CH2Ph)]S(tBu)[NMeF][NMeL]D-Piperidide; lactam N-11) | 1.5
8 | CCCCN1CC(=O)N(C)[C@@H](Cc2ccccc2)C(=O)N[C@@H]([C@@H](C)CC)C(=O)N(C)[C@@H](CC(C)C)C(=O)N[C@@H]([C@@H](C)O)C(=O)N(CCC)CC(=O)N(C)[C@@H](Cc2ccccc2)C(=O)N(C)[C@@H](CC(C)C)C(=O)N[C@@H](COCC(=O)NC(C)(C)C)C(=O)N(C)[C@@H](C)C(=O)N[C@H](C(=O)N2CCCCC2)CC1=O [pd443] ([NBuGly][NMeF]I[NMeL]T[NPrGly][NMeF][NMeL]S(CH2CONHtBu)[NMeA]D-Piperidide; lactam N-11) | 1
9 | CC[C@H](C)[C@@H]1NC(=O)[C@H](Cc2ccccc2)N(C)C(=O)CN(C)C(=O)C[C@@H](C(=O)N2CCCCC2)NC(=O)[C@H]([C@@H](C)CC)N(C)C(=O)C(COCc2ccccc2)NC(=O)[C@H](CC(C)C)N(C)C(=O)[C@H](Cc2ccccc2)N(C)C(=O)CN(C)C(=O)[C@H]([C@@H](C)O)NC(=O)[C@H](CC(C)C)N(C)C1=O (stereo partly drawn) [pd370] ([Sar][NMeF]I[NMeL]T[Sar][NMeF][NMeL][ξS](Bn)[NMeI]D-Piperidide; lactam N-11) | 2.5
10 | CC(C)C[C@@H]1NC(=O)[C@H](C)N(C)C(=O)C[C@@H](C(=O)N2CCCCC2)NC(=O)[C@H](CC(C)C)N(C)C(=O)CN(C)C(=O)[C@H]([C@@H](C)O)NC(=O)[C@H](CC(C)C)N(C)C(=O)[C@H](CCc2ccccc2)N(C)C(=O)[C@H](COCCC(C)(C)O)NC(=O)[C@H](Cc2ccccc2)N(C)C(=O)[C@H](CC(C)C)N(C)C1=O [pd437] ([NMeA]L[NMeL][NMeF]S(Butyl(3-Me,3-OH))[NMehPhe][NMeL]T[Sar][NMeL]D-Piperidide; lactam N-11) | 1.3
11 | CC(C)C[C@@H]1NC(=O)[C@H](Cc2ccccc2)N(C)C(=O)[C@@H](CC(C)C)NC(=O)C[C@@H](C(=O)N2CCCCC2)NC(=O)[C@H](C(C)C)N(C)C(=O)[C@H](Cc2ccccc2)N(C)C(=O)[C@H](COC(C)(C)C)NC(=O)[C@H](CC(C)C)N(C)C(=O)CN(C)C(=O)[C@H](CCCCO)NC(=O)[C@H](CC(C)C)N(C)C1=O [pd449] ([dL][NMeF]L[NMeL][X3][Sar][NMeL]S(tBu)[NMeF][NMeV]D-Piperidide; lactam N-11) | 2
12 | CC(C)C[C@H]1C(=O)N[C@@H](COC(C)(C)C)C(=O)N(C)[C@@H](Cc2ccccc2)C(=O)N(C)[C@@H](C(C)C)C(=O)N[C@H](C(=O)N2CCCCC2)CC(=O)N[C@H](C(C)C)C(=O)N(C)[C@@H](C)C(=O)N[C@@H](CCc2ccccc2Cl)C(=O)N(C)[C@@H](CC(C)C)C(=O)N[C@@H]([C@@H](C)O)C(=O)N(C)CC(=O)N1C [pd350] ([dV][NMeA][X14][NMeL]T[Sar][NMeL]S(tBu)[NMeF][NMeV]D-Piperidide; lactam N-11) | 1.7
13 | CC[C@H](C)[C@@H]1NC(=O)[C@H](CC(C)C)N(C)C(=O)CCCN(C)C(=O)C[C@@H](C(=O)N2CCCCC2)NC(=O)[C@H](CC(C)C)N(C)C(=O)[C@H](C)N(C)C(=O)[C@H]([C@@H](C)O)NC(=O)[C@H](CC(C)C)N(C)C(=O)[C@H](CCc2ccccc2)NC(=O)[C@H](CC(C)C)N(C)C(=O)[C@H](Cc2ccccc2)N(C)C1=O [pd316] ([NMeGABA][NMeL]I[NMeF][NMeL][hPhe][NMeL]T[NMeA][NMeL]D-Piperidide; lactam N-11) | 1.4

same assay, conditions: human, Caco-2, Caco-2 (cm/sec)

Row | SMILES | Papp A→B at 180 min [×10⁻⁶ cm/s]
14 | CC(C)C[C@H]1C(=O)N[C@@H](COC(C)(C)C)C(=O)N(C)[C@@H](Cc2ccccc2)C(=O)N(C)[C@@H](CC(C)C)C(=O)N[C@H](C(=O)N2CCCCC2)CC(=O)N2CCC[C@H]2C(=O)N(C)[C@@H](Cc2cccc(Cl)c2)C(=O)N[C@@H](C(C)C)C(=O)N(C)[C@@H](C(C)C)C(=O)N[C@@H]([C@@H](C)O)C(=O)N(C)CC(=O)N1C [pd156] (P[NMePhe(3-Cl)]V[NMeV]T[Sar][NMeL]S(tBu)[NMeF][NMeL]D-Piperidide; lactam N-11) | 2.9
15 | CC(C)C[C@@H]1NC(=O)[C@H](Cc2ccccc2)N(C)C(=O)[C@H]2CCCN2C(=O)C[C@@H](C(=O)N2CCCCC2)N(C)C(=O)[C@H](Cc2ccccc2)N(C)C(=O)[C@H](Cc2ccccc2)N(C)C(=O)[C@H](COC(C)(C)C)NC(=O)[C@H](C(C)C)N(C)C(=O)CN(C)C(=O)[C@H]([C@@H](C)O)NC(=O)[C@H](CC(C)C)N(C)C1=O [pd200] ([dP][NMeF]L[NMeL]T[Sar][NMeV]S(tBu)[NMeF][NMeF][NMeD]-Piperidide; lactam N-11) | 2.6
16 | CC(C)C[C@H]1C(=O)N[C@@H](COC(C)(C)C)C(=O)N(C)[C@@H](Cc2ccccc2)C(=O)N(C)[C@@H](CC(C)C)C(=O)N[C@H](C(=O)N2CCCCC2)CC(=O)N2CCC[C@@H]2C(=O)N(C)[C@@H](Cc2cccc(Cl)c2)C(=O)N[C@@H](C(C)C)C(=O)N(C)[C@@H](C(C)C)C(=O)N[C@@H]([C@@H](C)O)C(=O)N(C)CC(=O)N1C [pd155] ([dP][NMePhe(3-Cl)]V[NMeV]T[Sar][NMeL]S(tBu)[NMeF][NMeL]D-Piperidide; lactam N-11) | 2.1
17 | CC[C@H](C)[C@@H]1NC(=O)[C@H](Cc2ccccc2)N(C)C(=O)CN(C)C(=O)C[C@@H](C(=O)N2CCCCC2)NC(=O)[C@H](C(C)C)N(C)C(=O)[C@H](COC(C)(C)C)NC(=O)[C@H](CC(C)C)N(C)C(=O)[C@H](Cc2ccccc2)N(C)C(=O)CN(C)C(=O)[C@H]([C@@H](C)O)NC(=O)[C@H](Cc2ccccc2)N(C)C1=O [pd205] ([Sar][NMeF]I[NMeF]T[Sar][NMeF][NMeL]S(tBu)[NMeV]D-Piperidide; lactam N-11) | 1.8
18 | CC(C)C[C@@H]1NC(=O)[C@H](Cc2ccccc2)N(C)C(=O)[C@H](COC(C)(C)C)NC(=O)[C@H](Cc2ccccc2)N(C)C(=O)[C@H](C)N(C)C(=O)[C@H](CC(C)C)N(C)C(=O)[C@@H](C)NC(=O)C[C@@H](C(=O)N2CCCCC2)NC(=O)[C@H](Cc2ccccc2)N(C)C(=O)[C@H]([C@@H](C)O)NC(=O)[C@H](CC(C)C)N(C)C1=O [pd220] ([dA][NMeL][NMeA][NMeF]S(tBu)[NMeF]L[NMeL]T[NMeF]D-Piperidide; lactam N-11) | 1.1
